These results are taken from PubChem BioAssay AID1259407 (Chemical Carcinogenesis Research Information System (CCRIS), 2018).

Calls of active or inactive are those of the source. No rule for the calls is given here.

The data set relates to CCRIS mutagenicity, Ames/micronucleus/aberration tests. In words: CCRIS mutagenicity studies.
[1] abbreviates: Test System: AMES SALMONELLA TYPHIMURIUM, Strain/Indicator: TA98, Metabolic Activation: NONE, Method: STANDARD PLATE.
Setting [2] is: Test System: AMES SALMONELLA TYPHIMURIUM, Strain/Indicator: TA100, Metabolic Activation: NONE, Method: STANDARD PLATE.
Where [3] appears, read: Test System: AMES SALMONELLA TYPHIMURIUM, Strain/Indicator: TA98, Metabolic Activation: NONE, Method: PREINCUBATION
Where [4] appears, read: Test System: AMES SALMONELLA TYPHIMURIUM, Strain/Indicator: TA100, Metabolic Activation: NONE, Method: PREINCUBATION
[5] abbreviates: Test System: AMES SALMONELLA TYPHIMURIUM, Strain/Indicator: TA1535, Metabolic Activation: NONE, Method: PREINCUBATION
Where [6] appears, read: Test System: AMES SALMONELLA TYPHIMURIUM, Strain/Indicator: TA1537, Metabolic Activation: NONE, Method: PREINCUBATION

As for `CSC(C)(C)/C=N/O`, the mutagenic call is “inactive; negative” (End Point: IN VITRO CHROMOSOMAL ABERRATIONS, Test System: CHO-LB CELLS, Metabolic Activation: NONE); “inactive; negative” (End Point: IN VITRO CHROMOSOMAL ABERRATIONS, Test System: CHO-LB CELLS, Metabolic Activation: RAT, LIVER, S-9, AROCLOR 1254); “inactive; negative” (Test System: AMES SALMONELLA TYPHIMURIUM, Strain/Indicator: TA98, Metabolic Activation: HAMSTER, LIVER, S-9, AROCLOR 1254, Method: STANDARD PLATE); “inactive; negative” under setting [1]; “inactive; negative” (Test System: AMES SALMONELLA TYPHIMURIUM, Strain/Indicator: TA98, Metabolic Activation: RAT, LIVER, S-9, AROCLOR 1254, Method: STANDARD PLATE); “inactive; negative” (Test System: AMES SALMONELLA TYPHIMURIUM, Strain/Indicator: TA100, Metabolic Activation: HAMSTER, LIVER, S-9, AROCLOR 1254, Method: STANDARD PLATE). Besides, the mutagenic call is “inactive; negative” under setting [2]; “inactive; negative” (Test System: AMES SALMONELLA TYPHIMURIUM, Strain/Indicator: TA100, Metabolic Activation: RAT, LIVER, S-9, AROCLOR 1254, Method: STANDARD PLATE); “inactive; negative” (Test System: AMES SALMONELLA TYPHIMURIUM, Strain/Indicator: TA1535, Metabolic Activation: HAMSTER, LIVER, S-9, AROCLOR 1254, Method: STANDARD PLATE); “inactive; negative” (Test System: AMES SALMONELLA TYPHIMURIUM, Strain/Indicator: TA1535, Metabolic Activation: NONE, Method: STANDARD PLATE); “inactive; negative” (Test System: AMES SALMONELLA TYPHIMURIUM, Strain/Indicator: TA1535, Metabolic Activation: RAT, LIVER, S-9, AROCLOR 1254, Method: STANDARD PLATE); “inactive; negative” (Test System: AMES SALMONELLA TYPHIMURIUM, Strain/Indicator: TA1537, Metabolic Activation: HAMSTER, LIVER, S-9, AROCLOR 1254, Method: STANDARD PLATE). The mutagenic call by setting is: (Test System: AMES SALMONELLA TYPHIMURIUM, Strain/Indicator: TA1537, Metabolic Activation: NONE, Method: STANDARD PLATE) “inactive; negative”; (Test System: AMES SALMONELLA TYPHIMURIUM, Strain/Indicator: TA1537, Metabolic Activation: RAT, LIVER, S-9, AROCLOR 1254, Method: STANDARD PLATE) “inactive; negative”; (Test System: AMES SALMONELLA TYPHIMURIUM, Strain/Indicator: TA1538, Metabolic Activation: HAMSTER, LIVER, S-9, AROCLOR 1254, Method: STANDARD PLATE) “inactive; negative”; (Test System: AMES SALMONELLA TYPHIMURIUM, Strain/Indicator: TA1538, Metabolic Activation: NONE, Method: STANDARD PLATE) “inactive; negative”; (Test System: AMES SALMONELLA TYPHIMURIUM, Strain/Indicator: TA1538, Metabolic Activation: RAT, LIVER, S-9, AROCLOR 1254, Method: STANDARD PLATE) “inactive; negative”; (Test System: MOUSE LYMPHOMA, Strain/Indicator: L5178Y (TK+/TK-), Metabolic Activation: NONE, Method: SUSPENSION/PLATE) “inactive; negative. reevaluation of results: equivocal”. Also, where the note is “Test System: MOUSE LYMPHOMA, Strain/Indicator: L5178Y (TK+/TK-), Metabolic Activation: RAT, LIVER, S-9, AROCLOR 1254, Method: SUSPENSION/PLATE”, the mutagenic call was “inactive; negative. reevaluation of results: negative”.
Regarding `Nc1c(N=Nc2ccc(-c3ccc(NN=C4C=CC(=O)C=C4)cc3)cc2)c(S(=O)(=O)O)cc2c1C(=O)/C(=N/Nc1ccccc1)C(S(=O)(=O)O)=C2`, the mutagenic call is “inactive; negative” (Test System: AMES SALMONELLA TYPHIMURIUM, Strain/Indicator: TA98, Metabolic Activation: HAMSTER, LIVER, S-9, AROCLOR 1254 (10%), Method: PREINCUBATION); “inactive; negative” under setting [3]; “inactive; negative” under setting [1]; “inactive; negative” (Test System: AMES SALMONELLA TYPHIMURIUM, Strain/Indicator: TA98, Metabolic Activation: RAT, LIVER, S-9, AROCLOR 1254 (10%), Method: PREINCUBATION); “inactive; negative” (Test System: AMES SALMONELLA TYPHIMURIUM, Strain/Indicator: TA98, Metabolic Activation: RAT, LIVER, S-9, PHENOBARBITAL, Method: STANDARD PLATE); “inactive; negative” (Test System: AMES SALMONELLA TYPHIMURIUM, Strain/Indicator: TA100, Metabolic Activation: HAMSTER, LIVER, S-9, AROCLOR 1254 (10%), Method: PREINCUBATION). Further, the mutagenic call runs as follows: under setting [4], “inactive; negative”; under setting [2], “inactive; negative”; (Test System: AMES SALMONELLA TYPHIMURIUM, Strain/Indicator: TA100, Metabolic Activation: RAT, LIVER, S-9, AROCLOR 1254 (10%), Method: PREINCUBATION) “inactive; negative”; (Test System: AMES SALMONELLA TYPHIMURIUM, Strain/Indicator: TA100, Metabolic Activation: RAT, LIVER, S-9, PHENOBARBITAL, Method: STANDARD PLATE) “inactive; negative”; (Test System: AMES SALMONELLA TYPHIMURIUM, Strain/Indicator: TA1535, Metabolic Activation: HAMSTER, LIVER, S-9, AROCLOR 1254 (10%), Method: PREINCUBATION) “active; positive”; under setting [5], “inactive; negative”. The mutagenic call was “inactive; negative” (Test System: AMES SALMONELLA TYPHIMURIUM, Strain/Indicator: TA1535, Metabolic Activation: RAT LIVER, S-9, AROCLOR 1254 (10%), Method: PREINCUBATION); “active; positive” (Test System: AMES SALMONELLA TYPHIMURIUM, Strain/Indicator: TA1535, Metabolic Activation: RAT, LIVER, S-9, AROCLOR 1254 (10%), Method: PREINCUBATION); “inactive; negative” (Test System: AMES SALMONELLA TYPHIMURIUM, Strain/Indicator: TA1537, Metabolic Activation: HAMSTER, LIVER, S-9, AROCLOR 1254 (10%), Method: PREINCUBATION); “inactive; negative” under setting [6]; “inactive; negative” (Test System: AMES SALMONELLA TYPHIMURIUM, Strain/Indicator: TA1537, Metabolic Activation: RAT, LIVER, S-9, AROCLOR 1254 (10%), Method: PREINCUBATION).
On to `C[C@H]1COc2c(C3(N)CC3)c(F)cc3c(=O)c(C(=O)O)cn1c23`, for which the mutagenic call by setting is: under setting [3], “inactive; negative”; (Test System: AMES SALMONELLA TYPHIMURIUM, Strain/Indicator: TA98, Metabolic Activation: RAT, LIVER, S-9, PHENOBARBITAL AND 5,6-BENZOFLAVONE, Method: PREINCUBATION) “inactive; negative”; under setting [4], “inactive; negative”; (Test System: AMES SALMONELLA TYPHIMURIUM, Strain/Indicator: TA100, Metabolic Activation: RAT, LIVER, S-9, PHENOBARBITAL AND 5,6-BENZOFLAVONE, Method: PREINCUBATION) “inactive; negative”; under setting [5], “inactive; negative”; (Test System: AMES SALMONELLA TYPHIMURIUM, Strain/Indicator: TA1535, Metabolic Activation: RAT, LIVER, S-9, PHENOBARBITAL AND 5,6-BENZOFLAVONE, Method: PREINCUBATION) “inactive; negative”. The mutagenic call under setting [6] is “inactive; negative”; the mutagenic call (Test System: AMES SALMONELLA TYPHIMURIUM, Strain/Indicator: TA1537, Metabolic Activation: RAT, LIVER, S-9, PHENOBARBITAL AND 5,6-BENZOFLAVONE, Method: PREINCUBATION) is “inactive; negative”; the mutagenic call (Test System: E. COLI, Strain/Indicator: WP2 UVRA, Metabolic Activation: NONE, Method: PREINCUBATION) was “inactive; negative”; the mutagenic call (Test System: E. COLI, Strain/Indicator: WP2 UVRA, Metabolic Activation: RAT, LIVER, S-9, PHENOBARBITAL AND 5,6-BENZOFLAVONE, Method: PREINCUBATION) is “inactive; negative”.
With `BrCc1cc2c3c(cccc3c1)-c1ccccc1-2`, the mutagenic call is, setting by setting: under setting [1], “active; positive”; under setting [2], “active; positive”.
